Legend:
Assay type in all cases: in vivo
[1] = system: ECHCG, Barnyardgrass, Echinochloa crusgalli, (L.)Beau; test: Preemergence herbicidal evaluation (Example 148); conditions: rating scale 0-9, two to four weeks after treatment
How it was run: (§1)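 Rate ~0.125–0.250 kg/ha, aqueous acetone spray onto soil post-sowing, pre-emergence. Greenhouse 2–4 wk. Visual injury score vs control; replicates averaged.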

[2] = system: ALOMY, Blackgrass, Alopecurus myosuroides; test: Preemergence herbicidal evaluation (Example 148); conditions: rating scale 0-9, two to four weeks after treatment
How it was run: as §1

[3] = system: AMBEL, Ragweed, Common, Ambrosia artemiisifolia, L.; test: Preemergence herbicidal evaluation (Example 148); conditions: rating scale 0-9, two to four weeks after treatment
How it was run: as §1

[4] = system: ZEAMX, Field corn, Zea mays L.; test: Preemergence herbicidal evaluation (Example 148); conditions: rating scale 0-9, two to four weeks after treatment
How it was run: as §1

[5] = system: DIGSA, Crabgrass, (Hairy) L, Digitaria sanguinalis, (L)Scop; test: Preemergence herbicidal evaluation (Example 148); conditions: rating scale 0-9, two to four weeks after treatment
How it was run: as §1

[6] = system: TRZAW, Winter wheat, Tritium Aestivum, L. (Winter); test: Preemergence herbicidal evaluation (Example 148); conditions: rating scale 0-9, two to four weeks after treatment
How it was run: as §1

[7] = system: XANST, Cocklebur, Xanthium strumariam; test: Preemergence herbicidal evaluation (Example 148); conditions: rating scale 0-9, two to four weeks after treatment
How it was run: as §1

[8] = system: CHEAL, Lambsquarters, Chenopodium album, L. Common; test: Preemergence herbicidal evaluation (Example 148); conditions: rating scale 0-9, two to four weeks after treatment
How it was run: as §1

[9] = system: GLXMA, Soybean, Glycine max, (L.) Merr.; test: Preemergence herbicidal evaluation (Example 148); conditions: rating scale 0-9, two to four weeks after treatment
How it was run: as §1

[10] = system: SETVI, Green foxtail, Setaria viridis, (L.)Beau; test: Preemergence herbicidal evaluation (Example 148); conditions: rating scale 0-9, two to four weeks after treatment
How it was run: as §1

[11] = system: ABUTH, Velvetleaf, Abutilon theophrasti, Medic.; test: Preemergence herbicidal evaluation (Example 148); conditions: rating scale 0-9, two to four weeks after treatment
How it was run: as §1

[12] = system: IPOHE, Morningglory, Ivyleaf, Ipomoea hederacea, (L)Jacq.; test: Preemergence herbicidal evaluation (Example 148); conditions: rating scale 0-9, two to four weeks after treatment
How it was run: as §1

[13] = system: ECHCG, Barnyardgrass, Echinochloa crusgalli, (L.)Beau; test: Postemergence herbicidal evaluation (Example 147); conditions: rating scale 0-9, two to three weeks after treatment
How it was run: (§2)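 Ratings (0-9) reflect stand, vigor, malformation, size and chlorosis relative to control plants, judged about two to three weeks post-spray. Application rate was about 0.016 to 0.032 kg/ha on roughly two-week-old seedlings, formulated in 80/20 acetone/water with 1.0% seed-oil adjuvant.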

[14] = system: ALOMY, Blackgrass, Alopecurus myosuroides; test: Postemergence herbicidal evaluation (Example 147); conditions: rating scale 0-9, two to three weeks after treatment
How it was run: as §2

[15] = system: AMBEL, Ragweed, Common, Ambrosia artemiisifolia, L.; test: Postemergence herbicidal evaluation (Example 147); conditions: rating scale 0-9, two to three weeks after treatment
How it was run: as §2

[16] = system: ZEAMX, Field corn, Zea mays L.; test: Postemergence herbicidal evaluation (Example 147); conditions: rating scale 0-9, two to three weeks after treatment
How it was run: as §2

[17] = system: DIGSA, Crabgrass, (Hairy) L, Digitaria sanguinalis, (L)Scop; test: Postemergence herbicidal evaluation (Example 147); conditions: rating scale 0-9, two to three weeks after treatment
How it was run: as §2

[18] = system: TRZAW, Winter wheat, Tritium Aestivum, L. (Winter); test: Postemergence herbicidal evaluation (Example 147); conditions: rating scale 0-9, two to three weeks after treatment
How it was run: as §2

[19] = system: XANST, Cocklebur, Xanthium strumariam; test: Postemergence herbicidal evaluation (Example 147); conditions: rating scale 0-9, two to three weeks after treatment
How it was run: as §2

[20] = system: CHEAL, Lambsquarters, Chenopodium album, L. Common; test: Postemergence herbicidal evaluation (Example 147); conditions: rating scale 0-9, two to three weeks after treatment
How it was run: as §2

[21] = system: GLXMA, Soybean, Glycine max, (L.) Merr.; test: Postemergence herbicidal evaluation (Example 147); conditions: rating scale 0-9, two to three weeks after treatment
How it was run: as §2

[22] = system: SETVI, Green foxtail, Setaria viridis, (L.)Beau; test: Postemergence herbicidal evaluation (Example 147); conditions: rating scale 0-9, two to three weeks after treatment
How it was run: as §2

[23] = system: ABUTH, Velvetleaf, Abutilon theophrasti, Medic.; test: Postemergence herbicidal evaluation (Example 147); conditions: rating scale 0-9, two to three weeks after treatment
How it was run: as §2

[24] = system: IPOHE, Morningglory, Ivyleaf, Ipomoea hederacea, (L)Jacq.; test: Postemergence herbicidal evaluation (Example 147); conditions: rating scale 0-9, two to three weeks after treatment
How it was run: as §2

Cn1c(C(F)(F)F)cc(=O)n(-c2cc(C(=O)NS(N)(=O)=O)c(Cl)cc2F)c1=O [Example 58]
Preemergence herbicidal rating ECHCG ([1]; rate 0.125 kg/ha): 4.0
Preemergence herbicidal rating ECHCG ([1]; rate 0.25 kg/ha): 6.0
Preemergence herbicidal rating ALMOY ([2]; rate 0.125 kg/ha): 0.0
Preemergence herbicidal rating ALMOY ([2]; rate 0.25 kg/ha): 0.0
Preemergence herbicidal rating AMBEL ([3]; rate 0.125 kg/ha): 9.0
Preemergence herbicidal rating AMBEL ([3]; rate 0.25 kg/ha): 9.0
Preemergence herbicidal rating ZEAMX ([4]; rate 0.125 kg/ha): 0.0
Preemergence herbicidal rating ZEAMX ([4]; rate 0.25 kg/ha): 1.0
Preemergence herbicidal rating DIGSA ([5]; rate 0.125 kg/ha): 0.0
Preemergence herbicidal rating DIGSA ([5]; rate 0.25 kg/ha): 3.0
Preemergence herbicidal rating TRZAW ([6]; rate 0.125 kg/ha): 0.0
Preemergence herbicidal rating TRZAW ([6]; rate 0.25 kg/ha): 3.0
Preemergence herbicidal rating XANST ([7]; rate 0.125 kg/ha): 5.0
Preemergence herbicidal rating XANST ([7]; rate 0.25 kg/ha): 8.0
Preemergence herbicidal rating CHEAL ([8]; rate 0.125 kg/ha): 9.0
Preemergence herbicidal rating CHEAL ([8]; rate 0.25 kg/ha): 9.0
Preemergence herbicidal rating GLXMA ([9]; rate 0.125 kg/ha): 9.0
Preemergence herbicidal rating GLXMA ([9]; rate 0.25 kg/ha): 9.0
Preemergence herbicidal rating SETVI ([10]; rate 0.125 kg/ha): 2.0
Preemergence herbicidal rating SETVI ([10]; rate 0.25 kg/ha): 6.0
Preemergence herbicidal rating ABUTH ([11]; rate 0.125 kg/ha): 9.0
Preemergence herbicidal rating ABUTH ([11]; rate 0.25 kg/ha): 9.0
Preemergence herbicidal rating IPOHE ([12]; rate 0.125 kg/ha): 9.0
Preemergence herbicidal rating IPOHE ([12]; rate 0.25 kg/ha): 9.0
Postemergence herbicidal rating ECHCG ([13]; rate 0.016 kg/ha): 6.0
Postemergence herbicidal rating ECHCG ([13]; rate 0.032 kg/ha): 7.0
Postemergence herbicidal rating ALMOY ([14]; rate 0.016 kg/ha): 3.0
Postemergence herbicidal rating ALMOY ([14]; rate 0.032 kg/ha): 3.0
Postemergence herbicidal rating AMBEL ([15]; rate 0.016 kg/ha): 9.0
Postemergence herbicidal rating AMBEL ([15]; rate 0.032 kg/ha): 9.0
Postemergence herbicidal rating ZEAMX ([16]; rate 0.016 kg/ha): 8.0
Postemergence herbicidal rating ZEAMX ([16]; rate 0.032 kg/ha): 8.0
Postemergence herbicidal rating DIGSA ([17]; rate 0.016 kg/ha): 5.0
Postemergence herbicidal rating DIGSA ([17]; rate 0.032 kg/ha): 6.0
Postemergence herbicidal rating TRZAW ([18]; rate 0.016 kg/ha): 4.5
Postemergence herbicidal rating TRZAW ([18]; rate 0.032 kg/ha): 5.0
Postemergence herbicidal rating XANST ([19]; rate 0.016 kg/ha): 9.0
Postemergence herbicidal rating XANST ([19]; rate 0.032 kg/ha): 9.0
Postemergence herbicidal rating CHEAL ([20]; rate 0.016 kg/ha): 8.0
Postemergence herbicidal rating CHEAL ([20]; rate 0.032 kg/ha): 9.0
Postemergence herbicidal rating GLXMA ([21]; rate 0.016 kg/ha): 8.5
Postemergence herbicidal rating GLXMA ([21]; rate 0.032 kg/ha): 8.5
Postemergence herbicidal rating SETVI ([22]; rate 0.016 kg/ha): 8.0
Postemergence herbicidal rating SETVI ([22]; rate 0.032 kg/ha): 8.0
Postemergence herbicidal rating ABUTH ([23]; rate 0.016 kg/ha): 9.0
Postemergence herbicidal rating ABUTH ([23]; rate 0.032 kg/ha): 9.0
Postemergence herbicidal rating IPOHE ([24]; rate 0.016 kg/ha): 9.0
Postemergence herbicidal rating IPOHE ([24]; rate 0.032 kg/ha): 9.0

Cn1c(C(F)(F)F)cc(=O)n(-c2cc(C(=O)NS(=O)(=O)NCc3cccs3)c(Cl)cc2F)c1=O [Example 77]
Preemergence herbicidal rating ECHCG ([1]; rate 0.125 kg/ha): 2.0
Preemergence herbicidal rating ECHCG ([1]; rate 0.25 kg/ha): 3.0
Preemergence herbicidal rating ALMOY ([2]; rate 0.125 kg/ha): 0.0
Preemergence herbicidal rating ALMOY ([2]; rate 0.25 kg/ha): 0.0
Preemergence herbicidal rating AMBEL ([3]; rate 0.125 kg/ha): 9.0
Preemergence herbicidal rating AMBEL ([3]; rate 0.25 kg/ha): 9.0
Preemergence herbicidal rating ZEAMX ([4]; rate 0.125 kg/ha): 0.0
Preemergence herbicidal rating ZEAMX ([4]; rate 0.25 kg/ha): 1.0
Preemergence herbicidal rating DIGSA ([5]; rate 0.125 kg/ha): 2.0
Preemergence herbicidal rating DIGSA ([5]; rate 0.25 kg/ha): 4.0
Preemergence herbicidal rating TRZAW ([6]; rate 0.125 kg/ha): 0.0
Preemergence herbicidal rating TRZAW ([6]; rate 0.25 kg/ha): 0.0
Preemergence herbicidal rating XANST ([7]; rate 0.125 kg/ha): 3.0
Preemergence herbicidal rating XANST ([7]; rate 0.25 kg/ha): 8.0
Preemergence herbicidal rating CHEAL ([8]; rate 0.125 kg/ha): 9.0
Preemergence herbicidal rating CHEAL ([8]; rate 0.25 kg/ha): 9.0
Preemergence herbicidal rating GLXMA ([9]; rate 0.125 kg/ha): 1.0
Preemergence herbicidal rating SETVI ([10]; rate 0.125 kg/ha): 2.0
Preemergence herbicidal rating SETVI ([10]; rate 0.25 kg/ha): 2.0
Preemergence herbicidal rating ABUTH ([11]; rate 0.125 kg/ha): 9.0
Preemergence herbicidal rating ABUTH ([11]; rate 0.25 kg/ha): 9.0
Preemergence herbicidal rating IPOHE ([12]; rate 0.125 kg/ha): 7.0
Preemergence herbicidal rating IPOHE ([12]; rate 0.25 kg/ha): 9.0
Postemergence herbicidal rating ECHCG ([13]; rate 0.016 kg/ha): 4.0
Postemergence herbicidal rating ECHCG ([13]; rate 0.032 kg/ha): 6.0
Postemergence herbicidal rating ALMOY ([14]; rate 0.016 kg/ha): 1.0
Postemergence herbicidal rating ALMOY ([14]; rate 0.032 kg/ha): 1.0
Postemergence herbicidal rating AMBEL ([15]; rate 0.016 kg/ha): 8.0
Postemergence herbicidal rating AMBEL ([15]; rate 0.032 kg/ha): 8.0
Postemergence herbicidal rating ZEAMX ([16]; rate 0.016 kg/ha): 6.0
Postemergence herbicidal rating ZEAMX ([16]; rate 0.032 kg/ha): 6.5
Postemergence herbicidal rating DIGSA ([17]; rate 0.016 kg/ha): 4.0
Postemergence herbicidal rating DIGSA ([17]; rate 0.032 kg/ha): 4.0
Postemergence herbicidal rating TRZAW ([18]; rate 0.016 kg/ha): 4.5
Postemergence herbicidal rating TRZAW ([18]; rate 0.032 kg/ha): 5.0
Postemergence herbicidal rating XANST ([19]; rate 0.016 kg/ha): 9.0
Postemergence herbicidal rating XANST ([19]; rate 0.032 kg/ha): 9.0
Postemergence herbicidal rating CHEAL ([20]; rate 0.016 kg/ha): 6.0
Postemergence herbicidal rating CHEAL ([20]; rate 0.032 kg/ha): 7.0
Postemergence herbicidal rating GLXMA ([21]; rate 0.016 kg/ha): 7.5
Postemergence herbicidal rating GLXMA ([21]; rate 0.032 kg/ha): 7.5
Postemergence herbicidal rating SETVI ([22]; rate 0.016 kg/ha): 5.0
Postemergence herbicidal rating SETVI ([22]; rate 0.032 kg/ha): 6.0
Postemergence herbicidal rating ABUTH ([23]; rate 0.016 kg/ha): 9.0
Postemergence herbicidal rating ABUTH ([23]; rate 0.032 kg/ha): 9.0
Postemergence herbicidal rating IPOHE ([24]; rate 0.016 kg/ha): 9.0
Postemergence herbicidal rating IPOHE ([24]; rate 0.032 kg/ha): 9.0

— US6689773B2, “Uracil substituted phenyl sulfamoyl carboxamides” (BASF Aktiengesellschaft, priority 2000, dated 2004)
